Test results: ChEMBL document CHEMBL3886737, “5-chloro-2-difluoromethoxyphenyl pyrazolopyrimidine compounds, compositions and methods of use thereof” (2016)

Experiments:
[1] = target: Tyrosine-protein kinase JAK2 (Homo sapiens, UniProt O60674); assay: (§1) JAK Enzyme Assay: The activity of the isolated recombinant JAK1 and JAK2 kinase domain was measured by monitoring phosphorylation of a peptide derived from JAK3 ([…] fluorescently labeled on the N-terminus with 5-carboxyfluorescein) using the Caliper LabChip® technology (Caliper Life Sciences, Hopkinton, Mass.). […] Reactions were incubated at 22° C. in 384-well polypropylene microtiter plates for 30 minutes and then stopped by addition of 25 μL of an EDTA containing solution (100 mM HEPES buffer (pH 7.2), 0.015% Brij-35, 150 mM EDTA), resulting in a final EDTA concentration of 50 mM. After termination of the kinase reaction, the proportion of phosphorylated product was determined as a fraction of total peptide substrate using the Caliper LabChip® 3000 according to the manufacturer's specifications.
[2] = target: Tyrosine-protein kinase JAK1 (Homo sapiens, UniProt P23458); assay: as §1
Tyrosine-protein kinase JAK1, sequence (P23458 whole entry): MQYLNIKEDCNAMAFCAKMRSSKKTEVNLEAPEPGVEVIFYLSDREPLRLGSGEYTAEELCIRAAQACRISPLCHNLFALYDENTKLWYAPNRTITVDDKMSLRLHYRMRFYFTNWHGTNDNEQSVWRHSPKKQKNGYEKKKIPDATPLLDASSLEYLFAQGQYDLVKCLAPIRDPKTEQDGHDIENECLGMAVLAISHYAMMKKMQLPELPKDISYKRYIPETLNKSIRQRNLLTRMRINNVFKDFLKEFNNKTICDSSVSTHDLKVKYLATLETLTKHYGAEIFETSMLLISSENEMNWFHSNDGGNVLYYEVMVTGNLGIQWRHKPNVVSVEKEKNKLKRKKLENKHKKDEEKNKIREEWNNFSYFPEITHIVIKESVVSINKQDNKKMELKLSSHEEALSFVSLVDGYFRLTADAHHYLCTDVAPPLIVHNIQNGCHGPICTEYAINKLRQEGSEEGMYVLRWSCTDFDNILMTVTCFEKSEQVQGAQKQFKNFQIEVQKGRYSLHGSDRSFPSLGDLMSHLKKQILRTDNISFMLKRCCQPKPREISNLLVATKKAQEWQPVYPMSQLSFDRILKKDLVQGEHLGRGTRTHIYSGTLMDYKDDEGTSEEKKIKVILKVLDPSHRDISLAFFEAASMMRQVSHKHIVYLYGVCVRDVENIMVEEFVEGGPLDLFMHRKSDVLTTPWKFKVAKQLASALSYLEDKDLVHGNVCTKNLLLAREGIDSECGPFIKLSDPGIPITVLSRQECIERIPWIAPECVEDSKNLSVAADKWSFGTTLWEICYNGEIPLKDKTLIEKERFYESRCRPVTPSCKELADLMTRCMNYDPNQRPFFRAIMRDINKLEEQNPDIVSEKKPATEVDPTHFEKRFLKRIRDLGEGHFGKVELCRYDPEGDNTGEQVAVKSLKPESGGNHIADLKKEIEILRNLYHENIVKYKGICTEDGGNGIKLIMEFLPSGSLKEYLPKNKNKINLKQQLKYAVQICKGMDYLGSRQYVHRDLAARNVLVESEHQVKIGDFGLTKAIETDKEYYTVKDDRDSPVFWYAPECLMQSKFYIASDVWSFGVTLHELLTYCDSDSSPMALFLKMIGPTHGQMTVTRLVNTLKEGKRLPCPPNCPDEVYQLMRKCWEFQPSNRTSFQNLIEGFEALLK

Tyrosine-protein kinase JAK2, sequence (O60674 whole entry, the tested form may be a part): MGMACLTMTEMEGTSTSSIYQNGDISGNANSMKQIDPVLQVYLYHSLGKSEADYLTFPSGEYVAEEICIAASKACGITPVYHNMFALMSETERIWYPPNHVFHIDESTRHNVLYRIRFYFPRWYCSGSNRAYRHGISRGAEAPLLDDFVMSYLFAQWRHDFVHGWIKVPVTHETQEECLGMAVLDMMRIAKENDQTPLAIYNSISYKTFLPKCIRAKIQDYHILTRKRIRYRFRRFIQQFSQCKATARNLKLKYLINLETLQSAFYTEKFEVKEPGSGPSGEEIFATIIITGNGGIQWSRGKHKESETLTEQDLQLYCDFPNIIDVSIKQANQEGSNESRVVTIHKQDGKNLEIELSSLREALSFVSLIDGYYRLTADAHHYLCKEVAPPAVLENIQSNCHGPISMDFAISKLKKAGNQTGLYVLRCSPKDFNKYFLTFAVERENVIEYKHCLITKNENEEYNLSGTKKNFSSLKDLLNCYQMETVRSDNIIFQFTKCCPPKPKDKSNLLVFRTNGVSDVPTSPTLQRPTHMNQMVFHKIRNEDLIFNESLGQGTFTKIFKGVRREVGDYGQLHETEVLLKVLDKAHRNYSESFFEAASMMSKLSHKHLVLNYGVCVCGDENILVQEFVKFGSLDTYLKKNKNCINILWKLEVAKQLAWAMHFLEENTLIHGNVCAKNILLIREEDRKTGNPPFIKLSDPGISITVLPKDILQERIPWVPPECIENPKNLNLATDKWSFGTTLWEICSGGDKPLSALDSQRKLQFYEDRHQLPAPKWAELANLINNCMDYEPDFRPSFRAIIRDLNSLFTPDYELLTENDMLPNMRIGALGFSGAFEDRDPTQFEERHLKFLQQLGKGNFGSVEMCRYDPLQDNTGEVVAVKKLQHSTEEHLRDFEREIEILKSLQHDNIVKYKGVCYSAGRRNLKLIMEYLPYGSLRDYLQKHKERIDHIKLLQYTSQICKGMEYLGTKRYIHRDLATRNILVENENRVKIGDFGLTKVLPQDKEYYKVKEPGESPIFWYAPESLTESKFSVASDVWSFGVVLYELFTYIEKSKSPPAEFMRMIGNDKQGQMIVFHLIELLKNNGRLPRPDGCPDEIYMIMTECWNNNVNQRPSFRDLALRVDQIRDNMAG

Structure (SMILES) | Ki [1] | Ki [2]
Nc1nn2cccnc2c1C(=O)Nc1cn(CC(=O)N2CC[C@@H](O)C2)nc1-c1cc(Cl)ccc1OC(F)F | 0.13 nM | –
N#C[C@H]1CCCN(C2CCN(C(=O)Cn3cc(NC(=O)c4cnn5cccnc45)c(-c4cc(Cl)ccc4OC(F)F)n3)CC2)C1 | 0.76 nM | 0.3 nM
C[N+](C)(CCCc1ccccc1)C1CCN(C(=O)Cn2cc(NC(=O)c3cnn4cccnc34)c(-c3cc(Cl)ccc3OC(F)F)n2)CC1 | 2.9 nM | 1.21 nM
O=C(Nc1cn(CC(=O)N2CCC(N3CC[S+]([O-])CC3)CC2)nc1-c1cc(Cl)ccc1OC(F)F)c1cnn2cccnc12 | 0.63 nM | 0.23 nM
CN1CCC(n2cc(NC(=O)c3c(N)nn4cccnc34)c(-c3cc(Cl)ccc3OC(F)F)n2)CC1 | – | 0.76 nM
CN(CC1(C#N)CC1)C1CCN(C(=O)Cn2cc(NC(=O)c3cnn4cccnc34)c(-c3cc(Cl)ccc3OC(F)F)n2)CC1 | 0.64 nM | –
CN(C)C1CCN(C(=O)C2CCN(c3nc(-c4cc(Cl)ccc4OC(F)F)c(NC(=O)c4cnn5cccnc45)s3)CC2)CC1 | 0.86 nM | 0.89 nM
CCOC(=O)CCN1CCN(C(=O)Cn2cc(NC(=O)c3cnn4cccnc34)c(-c3cc(Cl)ccc3OC(F)F)n2)CC1 | – | 0.49 nM
